Data: paper PMC8778818, “Synthesis, Structural Characterization and Anticancer Activity of New 5-Trifluoromethyl-2-thioxo-thiazolo[4,5-d]pyrimidine Derivatives” (Pharmaceuticals, 2022)

What was measured:
C32 = experiment: MTT cell viability assay, C32; type: cell-based, human; conditions: for cytotoxic effect (in words): C32, 72 h; for IC50: Homo sapiens, C32, MTT, 72 h, mean ± SD
Experimental: (§1) Twelve compounds (2a-e, 3a-d and 4a-c) at a concentration range of 50–5000 μM were tested for their antiproliferative potential against four human cancer cell lines (A375—melanotic melanoma, C32—amelanotic melanoma, DU145—prostate cancer androgen-independent, MCF-7/WT—breast adenocarcinoma) and two normal cell lines: Chinese Hamster Ovary (CHO-K1) and immortalized human keratinocytes from histologically normal skin (HaCaT).
(§2) To determine the antiproliferative activity of newly synthesized compounds, the following cell lines were used: human melanotic melanoma cell line (A375), human amelanotic melanoma cell line (C32), human breast adenocarcinoma cell line (MCF-7/WT), human prostate cancer androgen-independent (DU145) and two normal cell lines: hamster ovarian (CHO-K1) and immortalized human keratinocytes from histologically normal skin (HaCaT). The cells were obtained from the cell line bank of the Department of Molecular and Cellular Biology, Wroclaw Medical University. A375, C32, MCF-7/WT, DU145 and HaCaT cells were grown in a monolayer cultured in Dulbecco’s Modified Eagle’s Medium (DMEM, Sigma-Aldrich, Poznań, Poland), supplemented with 10% of fetal bovine serum (FBS, Gibco, Paisley, UK) and 1% of antibiotics (penicillin/streptomycin, Sigma-Aldrich) and CHO-K1 were grown in HAM’s F-12 medium (Sigma-Aldrich), supplemented with 10% fetal bovine serum (FBS, Gibco) and 1% of antibiotics (penicillin/streptomycin, Sigma-Aldrich). Cell lines were cultured in the polystyrene flasks 25 or 75 cm^2 (Thermo Fisher Scientific, Waltham, MA, USA), which were stored in 37 °C and 5% CO2 in a humidified 95% atmosphere (SteriCult, Thermo Scientific, Alab). The cell medium was exchanged twice a week. The exponentially growing cells were used throughout the experiments. The cells were rinsed with phosphate-buffered saline (PBS, Sigma-Aldrich) and trypsinized by Trypsin-EDTA 0.25% solution (Sigma-Aldrich).
(§3) The influence of the compounds was performed in a monolayer culture on cancer and normal cells. Compounds were initially dissolved in DMSO; further dilutions of the compound were performed in Dulbecco’s Modified Eagle’s Medium supplemented with 10% FBS. Compounds were tested in a 50–5000 µM concentration range. In the in vitro experiments, the concentrations of DMSO in the final solution of the compounds were used 0.05%; 0.1%; 0.5%; 1%, respectively.
(§4) Cell viability was determined using the MTT colorimetric assay. All cell lines were seeded into 96-well plates to a density of 3 × 10^4 cells/well. After 24 h, the culture supernatants were removed and appropriate dilutions of compounds in the culture medium (200 µL/well) were added to the cells’ monolayer cultures and incubated for an additional 72 h. After 72 h of exposition to the compounds and the removal of the culture medium, cell viability was determined by reducing the yellow dye 3-(4,5-dimethyl-2-thiazol)-2,5-diphenyl-2H-tetrazolium bromide (MTT assay, Sigma Saint Louis, MO, USA; In Vitro Toxicology Assay) to a blue formazan product. The absorbance of the resulting solutions in three duplicate experiments was measured at the wavelength of 560 nm in a microplate reader (EnSpire, Perkin Elmer, Kraków, Poland). MTT assay is a colorimetric method that estimates the rate of metabolism in viable cells. Absorbance is directly proportional to the number of viable cells. All the experiments were performed three times and the mean absorbance values were calculated. The methodology for the evaluation of the growth of human cancer and normal cells was described previously. The cell viability in each group was expressed as a percentage of control (untreated) cells.

CHO-K1 = experiment: MTT cell viability assay, CHO-K1; type: cell-based, Chinese Hamster; conditions: CHO-K1 normal cells, 72 h; for IC50: Cricetulus griseus, MTT, mean ± SD
Experimental: as §1, §2, §3, §4

DU145 = experiment: MTT cell viability assay, DU145; type: cell-based, human; conditions: for IC50: Homo sapiens, DU-145, DU145, MTT, 72 h, mean ± SD; for cytotoxic effect (in words): DU145, 72 h
Experimental: as §1, §2, §3, §4

[1] = tested on: A375, C32, DU145, MCF-7/WT, CHO-K1 and HaCaT cell lines; experiment: MTT cell viability assay, all six cell lines; type: cell-based; conditions: mean over the six cell lines; read-out: Mean A: the mean IC50 for the given compound
Experimental: as §1, §2, §3, §4

A375 = experiment: MTT cell viability assay, A375; type: cell-based, human; conditions: A375, MTT, mean ± SD
Experimental: as §1, §2, §3, §4

MCF-7/WT = experiment: MTT cell viability assay, MCF-7/WT; type: cell-based; conditions: Homo sapiens, MCF7, 72 h, mean ± SD
Experimental: as §1, §2, §3, §4

HaCaT = experiment: MTT cell viability assay, HaCaT; type: cell-based, human; conditions: 72 h; for cytotoxic effect (in words): HaCaT human keratinocytes; for IC50: Homo sapiens, HaCaT normal cells, MTT, mean ± SD
Experimental: as §1, §2, §3, §4

[2] = tested on: 60 human cancer cell lines; parameters: method as in PMID 579132; conditions: cited from earlier work; for Mean Growth %: 10^−5 M one dose, mean over the panel, analogs I–VII; for N2: number of cell lines giving positive log TGI (≤−4.01): of N = 59 tested cell lines; for N2: number of cell lines giving positive log TGI (≤−4.01) / log GI50 Range / log LC50 Range / log TGI Range: analogs IV and V; for log GI50 Range / log LC50 Range / log TGI Range: values > −4.00 excluded
HOP-92 = tested on: HOP-92; parameters: method as in PMID 579132; conditions: NS Cell Lung C. HOP-92, 10^−5 M one dose; cited from earlier work
UACC-62 = tested on: UACC-62; parameters: method as in PMID 579132; conditions: Melanoma UACC-62, 10^−5 M one dose; cited from earlier work
CAKI-1 = tested on: CAKI-1; parameters: method as in PMID 579132; conditions: Renal C. CAKI-1, 10^−5 M one dose; cited from earlier work
RPMI-8226 = tested on: RPMI-8226; parameters: method as in PMID 579132; conditions: Leukemia, 10^−5 M one dose; cited from earlier work
SF-295 = tested on: SF-295; parameters: method as in PMID 579132; conditions: CNS C. SF-295, 10^−5 M one dose; cited from earlier work
UO-31 = tested on: UO-31; parameters: method as in PMID 579132; conditions: Renal C. UO-31, 10^−5 M one dose; cited from earlier work

| Structure (SMILES) | IC50 (C32) [µM] | IC50 (CHO-K1) [µM] | IC50 (DU145) [µM] | IC50 [1] [µM] | IC50 (A375; Homo sapiens, A-375, 72 h) [µM] | IC50 (MCF-7/WT) [µM] | IC50 (HaCaT) [µM] | Mean Growth % [2] [%] | other results |
| --- | --- | --- | --- | --- | --- | --- | --- | --- | --- |
| Fc1ccccc1-n1c(=S)sc2c(Cl)nc(C(F)(F)F)nc21 [Compound 3c, 7-chloro-(2-fluoropheny)-5-(trifluoromethyl)[1, 3]thiazolo[4,5-d]pyrimidine-2(3H)-thione] | 86.4 ± 2.1 | 93.8 ± 2.3 | 168 ± 4 | 124 | 108 ± 2.6 | 248 ± 6 | 37.8 ± 0.9 | – | cytotoxic effect (in words) (C32): strong cytotoxic effect; cytotoxic effect (in words) (CHO-K1): strong cytotoxic effect; cytotoxic effect (in words) (HaCaT): strong cytotoxic effect |
| O=c1[nH]c(-c2ccc(F)cc2)nc2c1sc(=S)n2-c1ccccc1 [II] | – | – | – | – | – | – | – | 106.11 | Growth % of the most sensitive cell line (HOP-92): 55.97% |
| Fc1ccc(CNc2nc(-c3ccc(F)cc3)nc3c2sc(=S)n3-c2ccccc2)cc1 [VII] | – | – | – | – | – | – | – | 89.50 | Growth % of the most sensitive cell line (UACC-62): 54.52% |
| Fc1ccc(-c2nc(Cl)c3sc(=S)n(-c4ccccc4)c3n2)cc1 [V] | – | – | – | – | – | – | – | – | N2: number of cell lines giving positive log TGI (≤−4.01) [2]: 49; log GI50 Range [2]: −4.23 to −8.00 log M; log LC50 Range [2]: −4.07 to −5.42 log M; log TGI Range [2]: −4.10 to −5.90 log M; Growth % of the most sensitive cell line (CAKI-1): −88.95% |
| Fc1cccc(-n2c(=S)sc3c(Cl)nc(C(F)(F)F)nc32)c1 [Compound 3d, 7-chloro-(3-fluoropheny)-5-(trifluoromethyl)[1, 3]thiazolo[4,5-d]pyrimidine-2(3H)-thione] | 87.4 ± 2.9 | 512 ± 17 | 126 ± 4.2 | 288 | 103 | 540 ± 17.9 | 360 ± 11.9 | – | cytotoxic effect (in words) (C32): strong cytotoxic effect; cytotoxic effect (in words) (CHO-K1): non-toxic; IC50 (A375; 72 h): 104 ± 3.4 µM; cytotoxic effect (in words) (HaCaT): non-toxic |
| O=c1[nH]c(-c2ccc(Cl)cc2)nc2c1sc(=S)n2-c1ccccc1 [I] | – | – | – | – | – | – | – | 80.85 | Growth % of the most sensitive cell line (RPMI-8226): 29.76% |
| O=c1[nH]c(C(F)(F)F)nc2c1sc(=S)n2-c1cccc(F)c1 [Compound 2d, 3-(3-fluorophenyl)-2-thioxo-5-(trifluoromethyl)-2,3-dihydro[1, 3]thiazolo[4,5-d]pyrimidin-7(6H)-one] | 384 ± 16.2 | 553 ± 23.3 | 121 ± 5.1 | 472 | 531 ± 22.4 | 519 ± 21.9 | 725 ± 30.6 | – | – |
| Fc1ccc(CNc2nc(-c3ccc(Cl)cc3)nc3c2sc(=S)n3-c2ccccc2)cc1 [VI] | – | – | – | – | – | – | – | 48.46 | Growth % of the most sensitive cell line (SF-295): −43.11% |
| CNc1nc(C(F)(F)F)nc2c1sc(=S)n2-c1ccccc1 [Compound 4a, 7-(methylamino)-3-phenyl-5-(trifluoromethyl)[1, 3]thiazolo[4,5-d]pyrimidine-2(3H)-thione] | 132 ± 4.1 | 48.5 ± 1.5 | 96.9 ± 3 | 214 | 114 ± 3.5 | 144 ± 4.4 | 748 ± 22.9 | – | cytotoxic effect (in words) (CHO-K1): high cytotoxicity; cytotoxic effect (in words) (DU145): high cytotoxicity; melting point: 197 to 198 °C |
| CCn1c(=S)sc2c(=O)[nH]c(C(F)(F)F)nc21 [Compound 2a, 3-ethyl-2-thioxo-5-(trifluoromethyl)-2,3-dihydro[1, 3]thiazolo[4,5-d]pyrimidin-7(6H)-one] | 434 ± 17.7 | 521 ± 21.2 | 251 ± 10.2 | 462 | 429 ± 17.5 | 519 ± 21.1 | 615 ± 25 | – | – |
| O=c1[nH]c(C(F)(F)F)nc2c1sc(=S)n2-c1ccccc1F [Compound 2c, 3-(2-fluoropheny)l-2-thioxo-5-(trifluoromethyl)-2,3-dihydro[1, 3]thiazolo[4,5-d]pyrimidin-7(6H)-one] | 364 ± 14.3 | 525 ± 20.6 | 163 ± 6.4 | 411 | 450 ± 17.6 | 420 ± 16.5 | 543 ± 21.3 | – | melting point: 211 to 212 °C |
| O=c1[nH]c(C(F)(F)F)nc2c1sc(=S)n2-c1ccc(F)cc1 [Compound 2e, 3-(4-fluoropheny)l-2-thioxo-5-(trifluoromethyl)-2,3-dihydro[1, 3]thiazolo[4,5-d]pyrimidin-7(6H)-one] | 355 ± 12.6 | 483 ± 17.2 | 139 ± 5 | 337 | 379 ± 13.5 | 434 ± 15.5 | 234 ± 8.3 | – | melting point: 259 to 260 °C |
| O=c1[nH]c(-c2cccnc2)nc2c1sc(=S)n2-c1ccccc1 [III] | – | – | – | – | – | – | – | 105.59 | Growth % of the most sensitive cell line (HOP-92): 73.81% |
| S=c1sc2c(Cl)nc(-c3cccnc3)nc2n1-c1ccccc1 [IV] | – | – | – | – | – | – | – | 20.78 | log TGI Δ ([2]; logarithmic difference between most sensible cell line and MG_MID, analog IV): 1.12; N2: number of cell lines giving positive log TGI (≤−4.01) [2]: 7; log GI50 Range [2]: −5.28 to −6.26 log M; log LC50 Range [2]: −5.17 to −5.26 log M; log TGI Range [2]: −4.52 to −5.51 log M; Growth % of the most sensitive cell line (UO-31): −85.59% |
| CCn1c(=S)sc2c(Cl)nc(C(F)(F)F)nc21 [Compound 3a, 7-chloro-3-ethyl-5-(trifluoromethyl)[1, 3]thiazolo[4,5-d]pyrimidine-2(3H)-thione] | 89.3 ± 2.3 | 122 ± 3.1 | 72.5 ± 1.9 | 145 | 142 ± 3.6 | 356 ± 9.1 | 88.3 ± 2.3 | – | cytotoxic effect (in words) (C32): strong cytotoxic effect; cytotoxic effect (in words) (DU145): strong cytotoxic effect; cytotoxic effect (in words) (HaCaT): strong cytotoxic effect; melting point: 66 to 67 °C |
